# Measurements taken from publication PMC4974772, “In vitro anti-Leishmania activity of tetracyclic iridoids from Morinda lucida, benth” (Tropical Medicine and Health, 2016).
# “And” between values parts separate entries of the source, which are not always exact repeats. Identical values can stand only once. Like-named read-outs stand apart in the source and are kept apart here.
# What was measured:
# [1] = tested on: Leishmania hertigi promastigotes; assay: In vitro viacount assay (Guava viacount, FACS) on L. hertigi promastigotes; format: cell-based
# Experimental: (§1) The field strain of L. enriettii (010) promastigotes, which had been isolated in Ghana, and the lab strain, Leishmania hertigi promastigotes, were used in this study because of their availability. Parasites were cultured in vitro according to conditions established previously. Log phase of parasites (1 × 10^6 parasites/ml) was diluted to a parasitemia of 3 × 10^5 parasites/ml with M199 medium and used for the drug assay. Estimation of parasitemia was done with the Neubauer’s counting chamber.
# Leishmania promastigote forms of L. hertigi parasites were seeded and incubated in the presence or absence of (50–0.78 μM) compounds (dissolved in DMSO) for 48 h, after which the Guava reagent for viacount (Millipore) was added to the culture in the ratio of 1:1 and incubated for 30 min. Analysis was performed using the Millipore guava easyCyte 5HT (USA) according to the manufacture’s instruction.
# (§2) The aim of the study was to investigate the anti-Leishmania properties of the three novel tetracyclic iridoid compounds previously found to have anti-trypanosome activity. In the determination of the effect of Molucidin, ML-2-3, and ML-F52 on L. hertigi and 010, parasites were challenged with 0–50 μM of each compound for 48 and 96 h to determine MIC and the concentration of compounds that inhibited parasite growth by 50 % (IC50) by microscopy and fluorescence-activated cell sorting (FACS) analysis, respectively. […] All three compounds share same side chains, iridoid tetracyclic skeleton, but differ in their functional group region. Molucidin and ML-F52 are esters while ML-2-3 is carboxylic acid. The functional groups may play a key role in the activity of the compounds against Leishmania.
# [2] = tested on: Chang Liver (normal liver); assay: Cytotoxicity on normal liver Chang Liver; format: cell-based; conditions: 48 h
# Experimental: (§3) Table 2 Selective index of compounds tested for anti-Leishmania activity | column: IC50 (μM), 48 h / ML-2-2; IC50 (μM), 48 h / ML-2-3; IC50 (μM), 48 h / ML-F52; SI / ML-2-2; SI / ML-2-3; SI / ML-F52
# [3] = tested on: Leishmania 010 (field strain of L. enriettii) promastigotes; assay: MIC by microscopy on Leishmania field strain 010 promastigotes; format: cell-based, L. enriettii (010)
# Experimental: as §1
# Promastigotes of Leishmania 010 were seeded and incubated in the presence or absence of (50–0.78 μM) compounds for 96 h and the minimum inhibitory concentration (MIC) of the compounds determined by microscopy.
# as §2, with “Molucidin and ML-F52 are esters while ML-2-3 is carboxylic acid. The functional groups may play a key role in the activity of the compounds against Leishmania.” left out
# [4] = tested on: NBIRGB (normal skin fibroblasts); assay: Cytotoxicity on normal skin fibroblasts NBIRGB; format: cell-based; conditions: 48 h
# Experimental: as §3
# Hs-888Lu (normal lung) = assay: Cytotoxicity on normal lung Hs-888Lu; format: cell-based; conditions: 48 h
# Experimental: as §3
# L. hertigi parasites = assay: Fluor-microscopy analysis using DAPI (nucleus/kinetoplast count, morphology); format: cell-based, Leishmania hertigi; conditions: 4 μM, 48 h, DAPI staining
# Experimental: Parasites were incubated for 24 h under appropriate conditions (25 °C) with appropriate concentrations of active compounds, Molucidin and ML-F52. Parasites were then harvested and fixed with 4 % paraformaldehyde at room temperature for 5 min. Washing steps were carried out with PBS and PBST (0.1 % Triton X 100 in PBS) at room temperature for 5 min and 15 min, respectively. The parasites were stained with 4’,6-diamidino-2’-phenylindole dihydrochloride (DAPI) (5 μg/ml DAPI in PBS) for 10 min. After washing steps as above, the slides were mounted using parmafluor mounting reagent and covered with cover slips. The slides were observed under the Olympus fluorescent microscope (Olympus BX53) to detect any phenotypic changes in L. hertigi parasites.
# To investigate the effect of Molucidin and ML-F52 on the morphology and cell division of L. hertigi, we performed fluor-microscope observation with DAPI staining after incubation of parasite with 4 μM of Molucidin and ML-F52 for 48 h. […] The inhibition of cytokinesis might imply the inability of cells to replicate in the mammalian host and increase the parasite burden. This may prevent the parasites from over running the host-immune and may give the host the edge to clear the infection. […]
# [5] = tested on: HF-19 (normal lung fibroblasts); assay: Cytotoxicity on normal lung fibroblasts HF-19; format: cell-based; conditions: 48 h
# Experimental: as §3
"IC50 ([1]; promastigotes, 48 h, 50–0.78 μM, Guava viacount FACS, read-out: IC50 after 48 h (L. hertigi)) [µM]","MIC after 96 h (010) ([3]; promastigotes, 50–0.78 μM, microscopy)","IC50 ([1]; Leishmania hertigi, positive control, strain not stated in footnote, read-out: IC50 of amphotericin B (positive control)) [µg/mL]",SMILES,"anti-Leishmania activity ([1]; L. hertigi, 0–50 μM, 48 h)",IC50 [2] [µM],"anti-Leishmania activity ([3]; 010 field strain, 0–50 μM, 96 h)",IC50 [4] [µM],IC50 (Hs-888Lu (normal lung)) [µM],effect on parasite morphology (L. hertigi parasites),"2N/2K cells (two sets of nucleus and kinetoplast) (L. hertigi parasites; microscopic counting, DMSO-treated cells 10 % 2N/2K)",IC50 [5] [µM]
4.24,4.167 µM and 4.17 µM,,COC(=O)C1=CO[C@@H]2O[C@H]3/C(=C\c4ccc(O)c(OC)c4)C(=O)O[C@]34C=C[C@H]1[C@H]24 [Molucidin],had anti-Leishmania activity,9.34,had anti-Leishmania activity,7.11,9.29,induced short stumpy form parasite cells,30–40%,14.2
,,0.1,"C[C@@H]1[C@H](O)[C@@H](C)/C=C/C=C/C=C/C=C/C=C/C=C/C=C/[C@H](O[C@@H]2O[C@H](C)[C@@H](O)[C@H](N)[C@@H]2O)C[C@@H]2O[C@](O)(C[C@@H](O)C[C@@H](O)[C@H](O)CC[C@@H](O)C[C@@H](O)CC(=O)O[C@H]1C)C[C@H](O)[C@H]2C(=O)O [amphotericin B, reference compound]",,,,,,,,
